{"source": "patent US5283250A", "about": "“Quinolinyl/quinolinylalkyl-N-terminal amino hydroxy” (G. D. Searle & Co., priority 1991, dated 1994)", "origin": "cited, not measured here", "key": {"[1]": {"system": "acid proteases"}, "[2]": {"system": "hog renin", "details": "after injection of hog renin into nephrectomized rats; Gross et al 1971"}, "[3]": {"system": "cathepsin D", "details": "Umezawa et al 1970"}, "[4]": {"system": "renin", "details": "Umezawa et al 1970"}, "[5]": {"system": "pepsin", "details": "Umezawa et al 1970"}}, "note": "Square brackets hold non-standard residues; d marks the D form. Peptide text beside a SMILES is read from it. * marks the point of attachment. Sta = CC(C)C[C@H](N)[C@@H](O)CC(=O)O; Isovaleryl = CC(C)CC(=O)*", "data": [{"smiles": "CC(C)CC(=O)N[C@H](C(=O)N[C@H](C(=O)N[C@@H](CC(C)C)[C@@H](O)CC(=O)N[C@@H](C)C(=O)N[C@@H](CC(C)C)[C@@H](O)CC(=O)O)C(C)C)C(C)C", "note": "[pepstatin] (Isovaleryl-VV[Sta]A[Sta]-OH)", "values": [{"measurement": "inhibition of acid proteases in addition to renin (in words)", "setting": "[1]", "result": "inhibiting acid proteases in addition to renin"}, {"measurement": "blood pressure in vivo (in words)", "setting": "[2]", "result": "reduce blood pressure in vivo"}, {"measurement": "inhibition of cathepsin D (in words)", "setting": "[3]", "result": "inhibitor"}, {"measurement": "inhibition of renin (in words)", "setting": "[4]", "result": "inhibitor"}, {"measurement": "inhibition of pepsin (in words)", "setting": "[5]", "result": "inhibitor"}]}]}
